In patent publication US20110086813A1, “COMPOUNDS FOR TREATING BACTERIAL INFECTIONS” (priority 2008, published 2011):

Legend:
[1] = target: T1, Gram Negative E. coli RelA (Escherichia coli, UniProt P0AG20); assay: In vitro (p)ppGpp accumulation, RelA synthetic activity; assay type: biochemical; settings: figure only
T1 construct: made in house; host or cells: deltaRelA E. coli cells, IPTG induced
Protocol: (§1) Starters of deltaRelA E. coli cells, expressing one of the following proteins (RelA, RelA638 or Relseq385) in trans, were grown overnight at 37° C. The next day, the starters were diluted 1:50 in 400 ml LBamp and the cells have continued to grow at 37° C. until they reached O.D600=˜0.6. Then, the cells were added with IPTG (1 mg/ml) and the cells were grown at the same conditions for additional 2-3 h. After that the cells were harvested for 10 min at 4000 rpm and the pellet was frozen at −80° C.
(§2) • Lysis of the pellet using “Lysis Buffer” containing Lysozyme (3 mg/ml) and ½ pill of Complete (EDTA-free). • Sonication on ice for 3.5 min. • Centrifuge the cells for 10 min at 10000 rpm. • Mix the supernatant with Ni-NTA bids for 1 h at 4° C. • Load the bids on a column and wash it with “Wash Buffer”. • Elute the protein using “Elution Buffer”.
(§3) The elution fractions were run on 12% Acryl/Bis gel and the fractions containing the most protein were taken to dialysis (two times overnight at 4° C.). After dialysis the concentration of the protein was determined using Bradford Reagent (O.D595).
(§4) In Vitro (p)ppGpp Accumulation:
(§5) 2.5 mM GTP, 20 mM ATP, 200 mM Tris HCl pH7.4, 5 mM DTT, 50 mM MgCl2
(§6) 50 mM KCl, 135 mM (NH4)2SO4, α-^32P GTP (0.1 μl per reaction), DDW
(§7) Once the buffer is added together with 1 μg of protein, 0-10 mM of inhibitor and 30 μg of ribosomes (in a total volume of 20 μl) the following reaction occurs: GTP/GDP+ATP→(p)ppGpp.
(§8) The reactions are incubated at room temperature for a period of 10-90 minutes. Then, the reactions are stopped by the addition of 5 μl of Formic acid. Once the reactions were stopped, they were placed on ice until 5 μl of each reaction were loaded on Cellulose PEI (Merck) and ran for 2 hours in 1.5M KH2PO4. The PEI was read, using image reader-1000 V1.8 and the data was analyzed by TINA 2.0 software.

[2] = target: T2, Relseq from Gram Positive Streptococcus equisimils (Streptococcus dysgalactiae subsp. equisimilis, UniProt Q54089); assay: In vitro (p)ppGpp accumulation, Relseq synthetic activity; assay type: biochemical; settings: figure only
T2 construct: made in house; host or cells: deltaRelA E. coli cells, IPTG induced
Protocol: as §1, §2, §3, §4, §5, §6, §7, §8

[3] = presented as pmol (p)ppGpp per mg RelA vs. compound concentration, 0-10 mM inhibitor
[4] = separate experiment, presented as % inhibition vs. compound concentration
[5] = presented as % inhibition vs. compound concentration

T1 sequence (P0AG20 whole entry): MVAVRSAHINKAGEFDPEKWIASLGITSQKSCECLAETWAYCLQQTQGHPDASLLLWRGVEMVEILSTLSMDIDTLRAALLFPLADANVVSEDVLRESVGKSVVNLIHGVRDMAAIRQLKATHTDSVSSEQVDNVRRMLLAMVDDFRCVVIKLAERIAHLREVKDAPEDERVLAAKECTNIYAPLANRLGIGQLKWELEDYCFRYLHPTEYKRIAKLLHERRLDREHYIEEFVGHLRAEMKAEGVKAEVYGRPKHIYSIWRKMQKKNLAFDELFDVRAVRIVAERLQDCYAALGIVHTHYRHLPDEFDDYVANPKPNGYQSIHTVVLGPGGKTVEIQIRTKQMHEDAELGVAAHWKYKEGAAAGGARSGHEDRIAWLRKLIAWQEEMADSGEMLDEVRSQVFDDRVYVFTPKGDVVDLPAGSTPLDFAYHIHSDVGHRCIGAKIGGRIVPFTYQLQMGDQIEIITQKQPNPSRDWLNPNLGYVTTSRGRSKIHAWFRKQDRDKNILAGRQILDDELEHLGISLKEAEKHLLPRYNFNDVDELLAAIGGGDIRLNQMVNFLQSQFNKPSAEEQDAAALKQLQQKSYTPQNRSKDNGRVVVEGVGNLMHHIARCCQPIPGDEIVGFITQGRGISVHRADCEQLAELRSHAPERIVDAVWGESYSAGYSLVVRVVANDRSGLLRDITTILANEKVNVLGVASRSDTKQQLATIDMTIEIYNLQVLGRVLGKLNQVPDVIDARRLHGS
T2 sequence (Q54089 1-385): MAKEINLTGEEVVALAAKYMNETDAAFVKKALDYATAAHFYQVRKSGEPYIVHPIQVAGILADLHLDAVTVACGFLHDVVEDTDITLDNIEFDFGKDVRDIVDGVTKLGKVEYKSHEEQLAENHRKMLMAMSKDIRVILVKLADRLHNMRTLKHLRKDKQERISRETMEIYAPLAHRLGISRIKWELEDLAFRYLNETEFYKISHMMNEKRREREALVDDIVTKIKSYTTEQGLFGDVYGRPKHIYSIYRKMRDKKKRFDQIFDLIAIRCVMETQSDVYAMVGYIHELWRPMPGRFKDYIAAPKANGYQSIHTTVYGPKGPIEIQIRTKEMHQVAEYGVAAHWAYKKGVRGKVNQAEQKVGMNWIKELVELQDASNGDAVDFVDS

Structure (SMILES) | inhibitory effect on RelA synthetic activity in vitro [1, 3] | inhibitory effect on RelA synthetic activity in vitro [1, 4] | inhibitory effect on Relseq synthetic activity in vitro [2, 5] | inhibitory effect on Relseq synthetic activity in vitro ([2]; presented as pmol (p)ppGpp per mg Relseq vs. compound concentration)
CC1(C)OC2C(COP(=O)(O)CP(=O)(O)O)OC(n3cnc4c(=O)[nH]c(N)nc43)C2O1 (stereo not drawn) [Compound E3b] | inhibitory effect | inhibitory effect | inhibitory effect | –
CC(C)C(=O)Nc1nc2c(ncn2C2OC(COP(=O)(O)CP(=O)(O)O)C(O)C2OP(=O)(O)CP(=O)(O)O)c(=O)[nH]1 (stereo not drawn) [Compound D2c] | – | inhibitory effect | – | –
Nc1nc2c(ncn2[C@@H]2O[C@H](COP(=O)(O)CP(=O)(O)O)C(O)C2O)c(=O)[nH]1 (stereo partly drawn) [Compound A1] | inhibitory effect | inhibitory effect | inhibitory effect | –
CC(C)C(=O)Nc1nc2c(ncn2C2OC(COP(=O)(O)CP(=O)(O)O)C(O[Si](C)(C)C(C)(C)C)C2OP(=O)(O)CP(=O)(O)O)c(=O)[nH]1 (stereo not drawn) [Compound D6] | inhibitory effect | inhibitory effect | – | –
Nc1nc2c(ncn2[C@H]2CC(OP(=O)(O)CP(=O)(O)O)[C@@H](COP(=O)(O)CP(=O)(O)O)O2)c(=O)[nH]1 (stereo partly drawn) [Compound D3, 5′,3′-O-di-[methylene-(bisphosphonate)]-2′-deoxyguanosine] | inhibitory effect | inhibitory effect | inhibitory effect | inhibitory effect
Nc1nc2c(ncn2[C@@H]2O[C@H](COP(=O)(O)CP(=O)(O)O)C(OP(=O)(O)CP(=O)(O)O)C2O)c(=O)[nH]1 (stereo partly drawn) [Compound D1c] | – | inhibitory effect | inhibitory effect | –
Nc1nc2c(ncn2[C@@H]2O[C@H](COP(=O)(O)CP(=O)(O)O)C(O)C2OP(=O)(O)CP(=O)(O)O)c(=O)[nH]1 (stereo partly drawn) [Compound D2b] | – | inhibitory effect | inhibitory effect | –
CC(C)C(=O)Nc1nc2c(ncn2C2OC(COP(=O)(O)CP(=O)(O)O)C(OP(=O)(O)CP(=O)(O)O)C2O)c(=O)[nH]1 (stereo not drawn) [Compound D8] | inhibitory effect | inhibitory effect | – | –
CC(C)C(=O)Nc1nc2c(ncn2C2OC(COP(=O)(O)CP(=O)(O)O)C(OP(=O)(O)CP(=O)(O)O)C2O[Si](C)(C)C(C)(C)C)c(=O)[nH]1 (stereo not drawn) [Compound D7] | inhibitory effect | inhibitory effect | – | –
